The values below come from patent US11878970B2, “Allosteric chromenone inhibitors of phosphoinositide 3-kinase (PI3K) for the treatment of disease” (Petra Pharma Corporation, priority 2021, dated 2024).

In assay [1] the target is T1, PI3K-α (PIK3CA) wild-type (WT), p110α/p85α complex (Homo sapiens, UniProt P42336).
T1 construct: Recombinant, catalytically active human full length PIK3KA Wild-type and H1047R mutant; 6×His (N); purchased EMD Millipore Sigma 14-602M
Description: PI3K-alpha kinase (PIK3CA) biochemical activity, ADP-Glo, wild-type. The settings on record: Soy PI lipid substrate. The procedure, abridged:
(§1)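 ADP formation measured by ADP-Glo luminescence after reaction at 27 °C to about 10% ATP turnover, using 20 uM ATP, 50 uM PIP2diC8 or soy PI lipid, HEPES pH 7.4 with MgCl2. Enzyme (1-5 nM WT or H1047R p110α/p85α) and compound preincubated 1 h first; 10-point 1:3 curves fitted four-parameter for IC50.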
(In general: ADP-Glo turns the ADP formed in a reaction into a luminescent signal.)

In assay [2] the target is T2, PI3K-α (PIK3CA) H1047R mutant, p110α/p85α complex (Homo sapiens, UniProt P42336, H1047R).
T2 construct: Recombinant, catalytically active human full length PIK3KA Wild-type and H1047R mutant; 6×His (N); purchased EMD Millipore Sigma 14-792M
T2 sequence (P42336 whole entry H1047R): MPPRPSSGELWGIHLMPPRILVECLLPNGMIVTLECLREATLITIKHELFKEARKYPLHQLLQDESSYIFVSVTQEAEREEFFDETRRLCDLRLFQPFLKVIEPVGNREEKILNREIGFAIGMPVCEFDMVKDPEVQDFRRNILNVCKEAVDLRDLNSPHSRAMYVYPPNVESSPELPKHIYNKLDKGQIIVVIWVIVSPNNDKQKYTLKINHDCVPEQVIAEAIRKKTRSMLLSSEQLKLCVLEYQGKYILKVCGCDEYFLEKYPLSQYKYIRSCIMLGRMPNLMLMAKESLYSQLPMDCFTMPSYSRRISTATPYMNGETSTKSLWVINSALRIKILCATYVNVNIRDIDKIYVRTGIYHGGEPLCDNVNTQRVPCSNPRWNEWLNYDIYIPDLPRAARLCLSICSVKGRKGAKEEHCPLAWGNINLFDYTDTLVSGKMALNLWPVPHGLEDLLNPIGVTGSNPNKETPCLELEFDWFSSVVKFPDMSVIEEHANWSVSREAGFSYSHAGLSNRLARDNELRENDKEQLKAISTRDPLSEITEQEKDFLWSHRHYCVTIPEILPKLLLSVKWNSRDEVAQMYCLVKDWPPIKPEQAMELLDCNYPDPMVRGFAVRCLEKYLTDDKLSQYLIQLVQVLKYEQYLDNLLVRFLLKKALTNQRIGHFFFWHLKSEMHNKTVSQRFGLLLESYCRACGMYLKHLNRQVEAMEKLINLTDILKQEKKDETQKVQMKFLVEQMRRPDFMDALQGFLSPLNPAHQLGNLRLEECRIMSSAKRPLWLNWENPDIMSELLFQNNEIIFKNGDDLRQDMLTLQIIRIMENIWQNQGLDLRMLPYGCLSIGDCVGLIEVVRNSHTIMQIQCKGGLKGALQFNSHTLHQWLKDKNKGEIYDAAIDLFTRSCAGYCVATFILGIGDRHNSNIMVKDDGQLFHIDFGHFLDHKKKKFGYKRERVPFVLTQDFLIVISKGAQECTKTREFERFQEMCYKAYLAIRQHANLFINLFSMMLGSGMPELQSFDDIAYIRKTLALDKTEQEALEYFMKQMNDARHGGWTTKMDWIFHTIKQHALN
T2 sequence (P27986 whole entry partner): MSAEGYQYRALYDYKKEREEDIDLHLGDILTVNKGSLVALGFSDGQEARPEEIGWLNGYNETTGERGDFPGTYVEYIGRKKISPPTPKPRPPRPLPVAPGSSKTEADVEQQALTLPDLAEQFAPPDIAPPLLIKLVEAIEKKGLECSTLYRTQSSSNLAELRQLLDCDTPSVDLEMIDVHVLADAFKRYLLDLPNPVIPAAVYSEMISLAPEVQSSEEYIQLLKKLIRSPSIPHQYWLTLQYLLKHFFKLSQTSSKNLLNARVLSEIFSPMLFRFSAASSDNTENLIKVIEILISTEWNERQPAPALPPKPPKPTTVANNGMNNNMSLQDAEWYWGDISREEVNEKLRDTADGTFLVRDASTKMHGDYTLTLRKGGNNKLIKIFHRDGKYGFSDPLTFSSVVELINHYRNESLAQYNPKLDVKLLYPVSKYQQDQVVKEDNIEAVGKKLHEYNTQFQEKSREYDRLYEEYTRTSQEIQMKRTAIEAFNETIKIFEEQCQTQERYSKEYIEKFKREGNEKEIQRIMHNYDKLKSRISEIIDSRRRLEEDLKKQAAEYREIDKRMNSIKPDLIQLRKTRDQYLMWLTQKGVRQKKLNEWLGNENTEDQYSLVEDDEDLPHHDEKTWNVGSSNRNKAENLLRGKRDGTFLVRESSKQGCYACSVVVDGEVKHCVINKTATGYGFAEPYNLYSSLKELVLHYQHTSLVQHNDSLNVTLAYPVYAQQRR
Description: PI3K-alpha kinase (PIK3CA) biochemical activity, ADP-Glo, H1047R mutant. Conditions: Soy PI lipid substrate. The procedure, abridged:
as §1

The target in assay [3] is PI3K-α (PIK3CA) in MDA-MB-453 cells (Homo sapiens, UniProt P42336). The assay can be described thus: PI3K-alpha kinase (PIK3CA) in vitro cell based assay, MDA-MB-453 cells, SureFire Ultra AlphaLisa. The settings on record: read-out: PI3K-α (PIK3CA) in vitro cell based assay IC50. On the procedure:
PI3K-Alpha Kinase (PIK3CA) Activity In Vitro Cell Based Assay and Determining IC50 Values for Inhibitors
The MDA-MB-453 (ATCC-HTB-131) cell line was obtained from the American Type Culture Collection (Manassas, VA). Cells were maintained in Dulbecco's Modified Eagle Media (DMEM, Gibco 11965-092) supplemented with 10% Fetal Bovine Serum, heat inactivated (FBS HI, Gibco 10082-147), 1× non-essential amino acids (NEAA, Gibco 11140-050), and 1 mM sodium pyruvate (Gibco 11360-070). Cultures were maintained in a humidified incubator at 37° C. under 5% CO2/95% air.
For compound testing in 0% FBS, MDA-MB-453 cells were seeded at a density of 1.5×10^4 cells per well in white 384-well plates in 20 μl of Minimum Essential Media (MEM) assay media with 1×NEAA, 1 mM sodium pyruvate, and 1 μg/mL human insulin (Sigma I9278). Compounds dissolved in 10 mM stock solutions in DMSO were serially diluted 1:3 in DMSO to generate a 10-point dilution series and plated using an acoustic liquid handler system (Echo 550 Series Liquid Handler, Labcyte). A 5× intermediate compound dilution plate in MEM with 1×NEAA and 1 mM sodium pyruvate (150 μM starting compound concentration in 1.5% DMSO) was then prepared. Five μl of the intermediate serially diluted compounds were added to the cell plate to final concentrations ranging from […] in 0.3% DMSO. 0.3% DMSO alone was used to establish the maximum (MAX) signal and GDC-0032 at a final concentration of 1 μM was used as a reference compound for the minimum (MIN) signal. After 3 hours treatment, the medium was removed, and the cells lysed in 10 μL of 1× SureFire Lysis buffer with shaking for 10 minutes at room temperature. The Acceptor Mix (Reaction Buffer 1+Reaction Buffer 2+Activation Buffer+SureFire Ultra Acceptor Beads) was prepared by diluting Activation buffer 25-fold in combined Reaction Buffer 1 and Reaction Buffer 2. The Acceptor beads were diluted 50-fold in the combined Reaction Buffers. Five μL of Acceptor Mix was added to each well, the plate was sealed and covered with foil and incubated for 1 hour at room temperature. The Donor Mix (dilution buffer+SureFire Ultra Donor Beads) was prepared by diluting Donor Beads 50-fold in dilution buffer. Five μL of the Donor Mix was added to each well and the plate sealed and covered with foil and incubated for 1 hour at room temperature in the dark. The plates were read on a Neo2 plate reader instrument from Biotek using standard AlphaLisa settings. Compounds were tested in duplicate and the average % inhibition at each compound concentration was used to generate a single dose response curve. The data were processed using the Genedata-Screener tool. Relative IC50 values were determined using luminescence units by calculating percent inhibition with respect to the in-plate “MIN” (GDC-0032 reference control) and “MAX” (DMSO) controls. The data was analyzed using a 4-parameter nonlinear logistic equation (four-parameter logistic concentration-response curve): Y=bottom+[(top−bottom)/1+(X/IC50)slope] where Y=% inhibition, X=concentration of inhibitor, bottom=minimum value of y attained by curve-fit, top=maximum value of y attained by curve-fit and slope=steepness of curve at the IC50. % Inhibition=[(signal at X−median Min)/(median Max−median Min)]×100 IC50: concentration of compound that reduces a given response (ligand binding, enzyme response) by 50%. Relative IC50: concentration giving half the compound's maximum response.

Usually IC50 stands for the concentration needed to halve the response being measured.

Chain of PI3K-α (PIK3CA) in MDA-MB-453 cells (P27986 2-724): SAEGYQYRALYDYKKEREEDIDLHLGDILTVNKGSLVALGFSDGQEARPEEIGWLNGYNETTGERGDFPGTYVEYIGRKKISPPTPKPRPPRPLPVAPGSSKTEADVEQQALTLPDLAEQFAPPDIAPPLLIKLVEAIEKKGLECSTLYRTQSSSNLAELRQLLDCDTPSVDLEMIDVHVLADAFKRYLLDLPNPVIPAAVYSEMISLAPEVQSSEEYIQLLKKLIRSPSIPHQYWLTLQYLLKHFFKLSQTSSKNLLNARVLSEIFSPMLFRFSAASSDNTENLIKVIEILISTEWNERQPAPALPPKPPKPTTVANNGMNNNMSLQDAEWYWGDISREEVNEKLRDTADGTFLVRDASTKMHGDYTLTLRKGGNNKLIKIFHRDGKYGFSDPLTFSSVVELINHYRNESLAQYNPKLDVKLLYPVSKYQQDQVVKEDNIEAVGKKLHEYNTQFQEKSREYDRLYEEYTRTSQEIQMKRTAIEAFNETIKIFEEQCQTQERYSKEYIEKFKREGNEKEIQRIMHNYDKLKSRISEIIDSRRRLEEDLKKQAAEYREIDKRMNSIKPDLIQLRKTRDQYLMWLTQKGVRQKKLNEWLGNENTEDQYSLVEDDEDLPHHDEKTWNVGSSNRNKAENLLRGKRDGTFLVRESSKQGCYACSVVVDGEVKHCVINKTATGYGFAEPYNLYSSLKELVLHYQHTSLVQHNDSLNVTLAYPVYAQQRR
Chain of PI3K-α (PIK3CA) in MDA-MB-453 cells (P42336 whole entry): as the sequence (P42336 whole entry H1047R) above, with R1047H counted along it

On to `Cc1cc([C@@H](C)Nc2cccnc2C(=O)O)c2oc(-c3cc(C)c4nn(C)cc4c3)cc(=O)c2c1` [Example 231, 3-[[(1R)-1-[2-(2,7-Dimethylindazol-5-yl)-6-methyl-4-oxo-chromen-8-yl]ethyl]amino]pyridine-2-carboxylic acid], for which the half-inhibitory concentration (IC50) was over 10000 nM in assay [1], 1000 to 5000 nM in assay [2] and 100 to 500 nM in assay [3].
In the case of `Cc1cc(C(C)Nc2ccccc2C(=O)O)c2oc(-c3ccc4[nH]nc(C)c4c3)cc(=O)c2c1` (single isomer, unassigned) [Example 61, 2-[1-[6-Methyl-2-(3-methyl-1H-indazol-5-yl)-4-oxo-chromen-8-yl]ethylamino]benzoic acid], the IC50 in assay [1] is 500 to 1000 nM; in assay [2], under 500 nM; in assay [3] it was 50 to 100 nM.
Consider `Cc1cc(C(C)Nc2ccccc2C(=O)O)c2oc(-c3ccc4cnn(C)c4c3)c(C)c(=O)c2c1` (single isomer, unassigned) [Example 149, 2-[1-[3,6-Dimethyl-2-(1-methylindazol-6-yl)-4-oxo-chromen-8-yl]ethylamino]benzoic acid], for which the IC50 in assay [1] was under 500 nM; in assay [2], under 500 nM; in assay [3] it was under 50 nM.
For the compound `Cc1cc(C(C)Nc2ccccc2C(=O)O)c2oc(-c3ccc4cc[nH]c4c3)cc(=O)c2c1` (stereo not drawn) [Example 18, 2-[1-[2-(1H-Indol-6-yl)-6-methyl-4-oxo-chromen-8-yl]ethylamino]benzoic acid], the figures for the IC50 in assay [1], in assay [2] and in assay [3] were 1000 to 5000 nM, under 500 nM and 100 to 500 nM, respectively.
For `Cc1cc([C@@H](C)Nc2ccc(Cl)nc2C(=O)O)c2oc(-c3nc4ccccc4o3)c(C)c(=O)c2c1` [Example 263, 3-[[(1R)-1-[2-(1,3-benzoxazol-2-yl)-3,6-dimethyl-4-oxo-chromen-8-yl]ethyl]amino]-6-chloro-pyridine-2-carboxylic acid; 2,2,2-trifluoroacetic acid], in that order: 1000 to 5000 nM, under 500 nM and under 50 nM.
The corresponding values for `Cc1cc([C@@H](C)Nc2ccc(Cl)nc2C(=O)O)c2oc(-c3ccc4nc(C)sc4c3)c(C)c(=O)c2c1` [Example 246, 6-Chloro-3-[[(1R)-1-[3,6-dimethyl-2-(2-methyl-l,3-benzothiazol-6-yl)-4-oxo-chromen-8-yl]ethyl]amino]pyridine-2-carboxylic acid] are 500 to 1000 nM, under 500 nM and under 50 nM.
For `Cc1cc(C(C)Nc2ccccc2C(=O)O)c2oc(-c3ccc4c(c3)OCO4)c(C)c(=O)c2c1` (single isomer, unassigned) [Example 93, 2-[1-[2-(1,3-Benzodioxol-5-yl)-3,6-dimethyl-4-oxo-chromen-8-yl]ethylamino]benzoic acid], in that order: 500 to 1000 nM, under 500 nM and under 50 nM.
Turning to `Cc1cc(C(C)Nc2ccccc2C(=O)O)c2oc(-c3cc4ccccc4[nH]3)c(C)c(=O)c2c1` (single isomer, unassigned) [Example 52, 2-[1-[2-(1H-Indol-2-yl)-3,6-dimethyl-4-oxo-chromen-8-yl]ethylamino]benzoic acid], the results for the half-inhibitory concentration (IC50) in assay [1], in assay [2] and in assay [3] were 500 to 1000 nM, under 500 nM and under 50 nM, respectively.
The corresponding values for `Cc1cc([C@@H](C)Nc2ccccc2C(=O)O)c2oc(-c3ccc4nc(C)sc4c3)c(C)c(=O)c2c1` [Example 262, 2-[[(1R)-1-[3,6-Dimethyl-2-(2-methyl-1,3-benzothiazol-6-yl)-4-oxo-chromen-8-yl]ethyl]amino]benzoic acid] are 500 to 1000 nM, under 500 nM and under 50 nM.
Regarding `Cc1cc(C(C)Nc2ccccc2C(=O)O)c2oc(-c3ccc4oc(C)nc4c3)cc(=O)c2c1` (single isomer, unassigned) [Example 19, 2-[1-[6-Methyl-2-(2-methyl-1,3-benzoxazol-5-yl)-4-oxo-chromen-8-yl]ethylamino]benzoic acid], the values for the IC50 in assay [1], in assay [2] and in assay [3] were 1000 to 5000 nM, under 500 nM and over 500 nM, respectively.
Take `Cc1cc(C(C)Nc2ccccc2C(=O)O)c2oc(-c3cc(F)c4nn(C)cc4c3)cc(=O)c2c1` (single isomer, unassigned) [Example 97, 2-[1-[2-(7-Fluoro-2-methyl-indazol-5-yl)-6-methyl-4-oxo-chromen-8-yl]ethylamino]benzoic acid]: the half-inhibitory concentration (IC50) in assay [1] is 1000 to 5000 nM; in assay [2], under 500 nM; in assay [3], under 50 nM.
The corresponding values for `Cc1cc(C(C)Nc2ccc(Cl)nc2C(=O)O)c2oc(-c3ccc4nc(C)cn4c3)c(C)c(=O)c2c1` (single isomer, unassigned) [Example 178, 6-Chloro-3-[1-[3,6-dimethyl-2-(2-methylimidazo[1,2-a]pyridin-6-yl)-4-oxo-chromen-8-yl]ethylamino]pyridine-2-carboxylic acid] are 500 to 1000 nM, under 500 nM and 50 to 100 nM.
With `Cc1cc(C(C)Nc2ccccc2C(=O)O)c2oc(-c3ccc4nn(C)cc4c3)cc(=O)c2c1` (single isomer, unassigned) [Example 75, 2-[1-[6-Methyl-2-(2-methylindazol-5-yl)-4-oxo-chromen-8-yl]ethylamino]benzoic acid], the IC50 is 500 to 1000 nM in assay [1], under 500 nM in assay [2] and under 50 nM in assay [3].
For `CC(Nc1ccccc1C(=O)O)c1cc(F)cc2c(=O)cc(-c3ccc4nn(C)cc4c3)oc12` (single isomer, unassigned) [Example 156, 2-[1-[6-Fluoro-2-(2-methylindazol-5-yl)-4-oxo-chromen-8-yl]ethylamino]benzoic acid], the values for the half-maximal inhibitory concentration (IC50) in assay [1], in assay [2] and in assay [3] were 1000 to 5000 nM, 1000 to 5000 nM and over 500 nM, respectively.
`COc1ccc2cc(-c3cc(=O)c4cc(C)cc([C@@H](C)Nc5ccccc5C(=O)O)c4o3)ccc2n1` [Example 249, 2-[[(1R)-1-[2-(2-Methoxy-6-quinolyl)-6-methyl-4-oxo-chromen-8-yl]ethyl]amino]benzoic acid]: the 50% inhibitory concentration (IC50) is 1000 to 5000 nM in assay [1], under 500 nM in assay [2] and 50 to 100 nM in assay [3].
Turning to `Cc1cc(C(C)Nc2ccccc2C(=O)O)c2oc(-c3cc4cnccc4o3)cc(=O)c2c1` (single isomer, unassigned) [Example 22, 2-[1-(2-Furo[3,2-c]pyridin-2-yl-6-methyl-4-oxo-chromen-8-yl)ethylamino]benzoic acid], the half-maximal inhibitory concentration (IC50) is 500 to 1000 nM in assay [1], under 500 nM in assay [2] and under 50 nM in assay [3].
Take `Cc1cc(C(C)Nc2cccc(F)c2C(=O)O)c2oc(-c3cc(C)c4nn(C)cc4c3)cc(=O)c2c1` (single isomer, unassigned) [Example 190, 2-[1-[2-(2,7-Dimethylindazol-5-yl)-6-methyl-4-oxo-chromen-8-yl]ethylamino]-6-fluoro-benzoic acid]: the results for the IC50 in assay [1], in assay [2] and in assay [3] were 500 to 1000 nM, under 500 nM and 50 to 100 nM, respectively.
